We go through one compound from ChEMBL document CHEMBL5032490, “Neuroactive Type-A γ-Aminobutyric Acid Receptor Allosteric Modulator Steroids from the Hypobranchial Gland of Marine Mollusk, Conus geographus” (J Med Chem, 2021).

The nature of test [1]: Induction of cytosolic calcium ion concentration in mouse non-peptidergic nociceptive DRG neuron at 10 uM measured after 1 hr by Fura2AM dye based fluorescence microscopic analysis. Type of test: functional.
The next test relates to Mus musculus. The test is described as follows: Anxiolytic activity in restraint stress induced anxiety mouse model assessed as total number of responses at 2 to 50 mg/kg, ip administered measured after 5 mins by open field test. Type of test: functional, organism-based. To be noted: dose 2-50 mg/kg.
Test [2] concerns the target T1, GABA-A receptor; alpha-1/beta-3/gamma-2 (Homo sapiens, UniProt P14867+P18507+P28472).
T1 sequence (P14867 whole entry): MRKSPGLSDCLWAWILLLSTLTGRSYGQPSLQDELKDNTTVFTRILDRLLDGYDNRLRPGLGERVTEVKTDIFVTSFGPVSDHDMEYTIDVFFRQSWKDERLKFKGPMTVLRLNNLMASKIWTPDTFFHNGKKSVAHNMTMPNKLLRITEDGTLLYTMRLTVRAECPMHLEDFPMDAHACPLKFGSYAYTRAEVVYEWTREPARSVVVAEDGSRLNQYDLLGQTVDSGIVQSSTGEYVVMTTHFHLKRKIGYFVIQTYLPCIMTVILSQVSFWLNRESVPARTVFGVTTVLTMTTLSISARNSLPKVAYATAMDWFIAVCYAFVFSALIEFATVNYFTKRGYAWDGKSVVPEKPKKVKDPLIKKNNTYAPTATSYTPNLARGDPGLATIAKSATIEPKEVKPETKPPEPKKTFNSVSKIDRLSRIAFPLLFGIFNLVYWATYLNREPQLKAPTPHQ
T1 sequence (P18507 whole entry): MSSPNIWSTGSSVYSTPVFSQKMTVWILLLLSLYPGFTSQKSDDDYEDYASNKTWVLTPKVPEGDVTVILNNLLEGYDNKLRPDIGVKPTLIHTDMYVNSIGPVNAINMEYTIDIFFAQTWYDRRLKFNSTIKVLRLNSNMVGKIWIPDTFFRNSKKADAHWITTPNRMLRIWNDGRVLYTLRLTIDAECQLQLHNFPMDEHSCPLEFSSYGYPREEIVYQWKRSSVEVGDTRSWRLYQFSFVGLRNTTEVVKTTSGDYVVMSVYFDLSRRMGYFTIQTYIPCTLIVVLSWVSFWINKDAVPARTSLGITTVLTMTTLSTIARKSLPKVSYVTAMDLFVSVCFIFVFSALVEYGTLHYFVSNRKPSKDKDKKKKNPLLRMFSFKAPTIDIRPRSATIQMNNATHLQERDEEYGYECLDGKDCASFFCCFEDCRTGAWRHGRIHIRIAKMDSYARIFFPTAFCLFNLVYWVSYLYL
T1 sequence (P28472 whole entry): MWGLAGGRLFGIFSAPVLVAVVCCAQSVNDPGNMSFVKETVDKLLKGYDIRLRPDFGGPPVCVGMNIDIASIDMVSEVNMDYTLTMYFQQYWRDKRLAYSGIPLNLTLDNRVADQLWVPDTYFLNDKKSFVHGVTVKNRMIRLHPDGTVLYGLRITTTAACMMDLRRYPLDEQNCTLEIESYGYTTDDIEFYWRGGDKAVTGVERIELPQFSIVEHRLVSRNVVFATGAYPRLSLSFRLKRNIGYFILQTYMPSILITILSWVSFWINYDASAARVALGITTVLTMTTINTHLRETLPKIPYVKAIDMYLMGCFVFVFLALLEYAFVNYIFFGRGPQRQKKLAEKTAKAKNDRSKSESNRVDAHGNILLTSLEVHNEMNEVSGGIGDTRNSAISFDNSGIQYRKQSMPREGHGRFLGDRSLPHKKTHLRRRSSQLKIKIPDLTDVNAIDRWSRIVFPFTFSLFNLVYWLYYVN
The test is described as follows: Negative allosteric modulation activity at human GABAA alpha1beta3gamma2 stably expressed in HEK cells by whole cell patch clamp method. Type of test: cell-based. In general terms: The patch-clamp technique gives a direct electrical read-out from membranes.

The next test concerns Neuron. Description: Negative allosteric modulation of human GABA receptor expressed in mouse DRG neurons assessed as inhibition of 500 nM GABA-induced response at 0.5 uM. It is filed as tissue-based. The following applies: filed as negative allosteric modulator.

Active and inactive are the calls of the source. The rule behind the calls is not given here.

In general, IC50 refers to the midpoint of a concentration-inhibition curve. Higher therefore signals lower potency. With `CC(C)CCC[C@@H](C)[C@H]1CC[C@H]2[C@@H]3C(=O)C=C4C=CCC[C@]4(C)[C@H]3CC[C@]12C`, the Activity in test [1] came to 27%. The result with Mus musculus was inactive. Besides, in test [2], half-maximal inhibition (IC50) required 21 µM. The result in the test on Neuron was Active.
